Assay results taken from BigSolDB 2.1.

Row | solubility (mole fraction) (in n-hexane, 293.15 K) | solubility (mole fraction) (in n-hexane, 298.15 K) | solubility (mole fraction) (in n-hexane, 303.15 K) | solubility (mole fraction) (in n-hexane, 308.15 K) | solubility (mole fraction) (in n-hexane, 313.15 K) | solubility (mole fraction) (in n-octanol, 293.15 K) | solubility (mole fraction) (in n-octanol, 298.15 K) | solubility (mole fraction) (in n-octanol, 303.15 K) | solubility (mole fraction) (in n-octanol, 308.15 K) | solubility (mole fraction) (in n-octanol, 313.15 K) | Compound
1 | 4.22e-05 | 5.67e-05 | 6.92e-05 | 8.55e-05 | 0.000105 | 0.00362 | 0.00423 | 0.00511 | 0.0058 | 0.00664 | CC12CC3CC(C)(C1)CC(NS(=O)(=O)c1ccc([N+](=O)[O-])cc1)(C3)C2
2 | 0.000265 | 0.000307 | 0.000366 | 0.000444 | 0.000495 | 0.00383 | 0.00452 | 0.00562 | 0.0068 | 0.00809 | Cc1cc(C)c(S(=O)(=O)NC23CC4CC(CC(C4)C2)C3)c(C)c1
